For 8 compounds, Ki and Selectivity ratio results are on record in ChEMBL document CHEMBL1136256, “alpha1-Adrenoceptor antagonists. 5. Pyridazinone-arylpiperazines. Probing the influence on affinity and selectivity of both ortho-alkoxy groups at the arylpiperazine moiety and cyclic substituents at the pyridazinone nucleus” (Bioorg Med Chem Lett, 2003).

Holding throughout (format): tissue-based
For experiment [1], the target named is T1, Adrenergic receptor alpha-1 (Rattus norvegicus, UniProt P15823+P23944+P43140).
T1 sequence (P15823 whole entry): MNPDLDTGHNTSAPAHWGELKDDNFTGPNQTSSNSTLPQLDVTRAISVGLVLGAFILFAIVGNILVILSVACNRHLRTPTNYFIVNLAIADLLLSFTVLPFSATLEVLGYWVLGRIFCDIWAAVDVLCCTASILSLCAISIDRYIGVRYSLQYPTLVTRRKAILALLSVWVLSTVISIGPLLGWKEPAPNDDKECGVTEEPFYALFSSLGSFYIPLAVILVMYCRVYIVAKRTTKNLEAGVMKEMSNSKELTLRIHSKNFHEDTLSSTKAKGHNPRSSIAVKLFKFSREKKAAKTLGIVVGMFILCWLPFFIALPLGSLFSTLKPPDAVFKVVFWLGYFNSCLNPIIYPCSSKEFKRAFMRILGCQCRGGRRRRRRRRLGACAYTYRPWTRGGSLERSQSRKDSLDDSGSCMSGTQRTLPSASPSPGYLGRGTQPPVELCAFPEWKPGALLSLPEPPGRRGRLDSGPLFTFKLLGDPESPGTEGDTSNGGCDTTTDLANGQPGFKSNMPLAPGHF
T1 sequence (P23944 whole entry): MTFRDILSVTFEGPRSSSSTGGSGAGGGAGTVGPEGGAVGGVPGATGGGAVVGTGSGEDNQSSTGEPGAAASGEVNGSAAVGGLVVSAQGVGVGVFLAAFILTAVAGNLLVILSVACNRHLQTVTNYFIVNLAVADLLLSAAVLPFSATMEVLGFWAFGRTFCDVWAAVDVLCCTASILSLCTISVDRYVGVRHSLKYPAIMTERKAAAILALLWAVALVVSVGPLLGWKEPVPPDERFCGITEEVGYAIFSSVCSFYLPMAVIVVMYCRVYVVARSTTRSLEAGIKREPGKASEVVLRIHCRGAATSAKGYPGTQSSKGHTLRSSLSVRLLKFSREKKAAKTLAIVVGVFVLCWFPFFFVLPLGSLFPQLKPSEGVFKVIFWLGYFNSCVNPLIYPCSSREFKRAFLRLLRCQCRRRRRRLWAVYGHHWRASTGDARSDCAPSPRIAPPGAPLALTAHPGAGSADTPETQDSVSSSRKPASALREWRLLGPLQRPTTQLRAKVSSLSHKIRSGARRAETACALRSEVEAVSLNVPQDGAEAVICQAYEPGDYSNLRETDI
T1 sequence (P43140 whole entry): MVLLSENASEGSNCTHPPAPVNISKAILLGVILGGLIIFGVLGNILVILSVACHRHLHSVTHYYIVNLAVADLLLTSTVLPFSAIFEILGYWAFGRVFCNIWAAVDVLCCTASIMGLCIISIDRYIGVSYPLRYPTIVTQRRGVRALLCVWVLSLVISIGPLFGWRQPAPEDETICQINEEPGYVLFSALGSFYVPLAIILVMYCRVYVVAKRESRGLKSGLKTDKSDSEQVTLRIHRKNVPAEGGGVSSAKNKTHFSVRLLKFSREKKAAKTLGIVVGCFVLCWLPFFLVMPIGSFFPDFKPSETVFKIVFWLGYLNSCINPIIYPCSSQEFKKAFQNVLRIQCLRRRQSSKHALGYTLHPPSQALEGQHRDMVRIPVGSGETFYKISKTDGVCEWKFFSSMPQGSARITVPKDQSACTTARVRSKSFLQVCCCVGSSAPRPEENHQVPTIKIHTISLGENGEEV
Briefly: Binding affinity towards Alpha-1 adrenergic receptor in rat cerebral cortex using [3H]prazosin.

The target in experiment [2] is Adrenergic receptor alpha-2 (Rattus norvegicus) (UniProt P22086+P19328+P22909). Briefly: Selectivity ratio of Alpha-2 adrenergic receptor by Alpha-1 adrenergic receptor in rat cerebral cortex.
For experiment [3], the target named is T2, Adrenergic receptor alpha-2 (Rattus norvegicus, UniProt P22086+P19328+P22909).
T2 sequence (P22086 whole entry): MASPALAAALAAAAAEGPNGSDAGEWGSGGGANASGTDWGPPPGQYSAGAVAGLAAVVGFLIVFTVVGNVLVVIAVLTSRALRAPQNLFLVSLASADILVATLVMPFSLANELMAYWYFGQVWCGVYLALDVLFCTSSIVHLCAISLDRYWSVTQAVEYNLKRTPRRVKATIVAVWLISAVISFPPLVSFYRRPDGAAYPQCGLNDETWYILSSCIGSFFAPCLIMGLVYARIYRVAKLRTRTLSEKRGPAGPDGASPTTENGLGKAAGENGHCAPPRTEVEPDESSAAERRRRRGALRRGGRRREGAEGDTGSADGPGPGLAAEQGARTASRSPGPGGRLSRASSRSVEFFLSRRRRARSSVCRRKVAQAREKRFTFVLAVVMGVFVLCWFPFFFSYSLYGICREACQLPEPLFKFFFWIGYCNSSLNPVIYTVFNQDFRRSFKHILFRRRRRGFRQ
T2 sequence (P19328 whole entry): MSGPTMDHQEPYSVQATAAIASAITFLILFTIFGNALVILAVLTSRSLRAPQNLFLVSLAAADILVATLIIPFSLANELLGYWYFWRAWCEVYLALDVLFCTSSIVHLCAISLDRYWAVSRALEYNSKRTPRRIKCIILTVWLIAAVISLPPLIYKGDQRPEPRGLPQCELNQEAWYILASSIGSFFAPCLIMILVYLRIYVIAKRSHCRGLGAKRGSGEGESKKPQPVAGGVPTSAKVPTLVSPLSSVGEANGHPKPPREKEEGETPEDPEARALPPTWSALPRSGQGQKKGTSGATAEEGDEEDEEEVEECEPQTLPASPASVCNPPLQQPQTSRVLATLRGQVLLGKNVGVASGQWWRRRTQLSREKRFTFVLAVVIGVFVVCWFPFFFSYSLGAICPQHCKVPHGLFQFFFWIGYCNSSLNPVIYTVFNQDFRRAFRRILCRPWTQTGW
T2 sequence (P22909 whole entry): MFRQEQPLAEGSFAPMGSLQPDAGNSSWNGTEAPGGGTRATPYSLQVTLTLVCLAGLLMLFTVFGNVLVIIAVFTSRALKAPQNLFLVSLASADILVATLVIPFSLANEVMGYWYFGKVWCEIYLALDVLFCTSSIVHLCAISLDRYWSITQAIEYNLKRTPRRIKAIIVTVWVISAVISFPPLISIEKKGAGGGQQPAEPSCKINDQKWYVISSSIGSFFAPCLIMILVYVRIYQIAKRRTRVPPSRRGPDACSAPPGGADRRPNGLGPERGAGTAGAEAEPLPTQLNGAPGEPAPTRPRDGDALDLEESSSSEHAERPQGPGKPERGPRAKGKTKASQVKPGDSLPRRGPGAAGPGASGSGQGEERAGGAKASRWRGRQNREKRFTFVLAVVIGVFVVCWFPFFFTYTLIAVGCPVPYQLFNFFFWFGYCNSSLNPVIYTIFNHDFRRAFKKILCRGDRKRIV
Briefly: Binding affinity towards Alpha-2 adrenergic receptor in rat cerebral cortex using [3H]rauwolscine.

Experiment [4] addresses T3, 5-hydroxytryptamine receptor 1A (Rattus norvegicus, UniProt P19327).
T3 sequence (P19327 whole entry): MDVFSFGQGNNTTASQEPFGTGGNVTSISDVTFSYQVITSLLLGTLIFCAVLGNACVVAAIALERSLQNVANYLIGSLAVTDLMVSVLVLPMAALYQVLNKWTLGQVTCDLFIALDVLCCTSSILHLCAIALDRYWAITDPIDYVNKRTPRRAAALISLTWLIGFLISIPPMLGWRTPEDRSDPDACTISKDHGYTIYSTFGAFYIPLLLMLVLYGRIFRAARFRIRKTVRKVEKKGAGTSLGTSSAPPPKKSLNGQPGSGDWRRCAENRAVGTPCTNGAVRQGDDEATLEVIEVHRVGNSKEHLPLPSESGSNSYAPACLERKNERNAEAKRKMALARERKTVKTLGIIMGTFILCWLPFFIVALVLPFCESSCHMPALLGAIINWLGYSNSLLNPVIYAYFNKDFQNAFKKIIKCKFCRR
Put plainly: Binding affinity towards 5-hydroxytryptamine 1A receptor in rat cerebral cortex using [3H]-8-OH-DPAT.

In experiment [5] the target is T3, 5-hydroxytryptamine receptor 1A. Put plainly: Binding affinity towards 5-hydroxytryptamine 1A receptor in rat cerebral cortex.

With `CCOc1ccccc1N1CCN(CCCCCCCn2ncc(N3CCN(C(=O)c4ccco4)CC3)c(Cl)c2=O)CC1`, the results for the Ki in experiment [1] and in experiment [3] were 0.5 nM and 4 nM, respectively. In addition, the Selectivity ratio in experiment [2] came to 8.

Take `COc1ccccc1N1CCN(CCCCCCCn2ncc(N3CCN(C(=O)c4ccco4)CC3)c(Cl)c2=O)CC1`: the Selectivity ratio in experiment [2] came to 274.

With `COc1ccccc1OCCN1CCN(c2cnn(CCCCCCCN3CCN(c4ccccc4OC)CC3)c(=O)c2Cl)CC1`, the Selectivity ratio in experiment [2] worked out at 3.

Turning to `CCOc1ccccc1OCCN1CCN(c2cnn(CCCCCCCN3CCN(c4ccccc4OC)CC3)c(=O)c2Cl)CC1`, the Ki (as a rule, a dissociation constant, usually derived from enzyme kinetics or from competition with a known ligand) was 0.55 nM in experiment [1], 0.16 nM in experiment [4] and 1.6 nM in experiment [3]. In experiment [2], the Selectivity ratio is 3.

`CC(C)Oc1ccccc1N1CCN(CCCCCCCn2ncc(N3CCN(C(=O)c4ccco4)CC3)c(Cl)c2=O)CC1`: the results for the Ki in experiment [1], in experiment [4] and in experiment [3] were 0.052 nM, 0.8 nM and 0.56 nM, respectively. In experiment [2], the Selectivity ratio worked out at 11.

Regarding `CCOc1ccccc1N1CCN(CCCCCCCn2ncc(N3CCN(CCOc4ccccc4OC)CC3)c(Cl)c2=O)CC1`, the Ki in experiment [1] came to 0.58 nM; in experiment [3], 8.2 nM. For the same compound, the Selectivity ratio in experiment [2] amounted to 14.

With `CCOc1ccccc1OCCN1CCN(c2cnn(CCCCCCCN3CCN(c4ccccc4OCC)CC3)c(=O)c2Cl)CC1`, the Ki in experiment [1] worked out at 0.43 nM; in experiment [4], 0.22 nM; in experiment [3] it was 2 nM. Also, the Selectivity ratio in experiment [2] is 5.

On to `CCOc1ccccc1OCCN1CCN(c2cnn(CCCCCCCN3CCN(c4ccccc4OC(C)C)CC3)c(=O)c2Cl)CC1`, for which the Ki is 0.26 nM in experiment [1], 3.2 nM in experiment [3] and 0.82 nM in experiment [5]. For the same compound, the Selectivity ratio in experiment [2] is 12.
